These results are taken from patent US12178846B2, “Methods of using gap junctions as therapeutic targets for the treatment of degenerative disorders of the retina” (The Research Foundation for The State University of New York, priority 2014, dated 2024).

Entries after “also recorded” stand apart in the source; their conditions may differ.

Series [1] concerns cells in the GCL of mouse retinas. The series can be described thus: NMDA-induced excitotoxic cell death in the GCL of retina-eyecups. The series is classed as cell-based. As to the method:
All animal procedures were in compliance with the NIH Guide for the Care and Use of Laboratory Animals and approved by the Institutional Animal Care and Use Committees at SUNY College of Optometry. Experiments were performed on retinas of wild type (WT), connexin knockout (KO) mice (Cx36^−/−, Cx45^−/−, and Cx36^−/−/45^−/− dKO), and their heterozygous (Het) littermates. The methods used to impale and label neurons have been described previously (Hu et al., J Neurosci 23:[…] (2003); Völgyi et al., Journal of Comparative Neurology 512:664-687 (2009)). Briefly, flattened retina-eyecups were placed in a superfusion chamber, which was mounted on the stage of a BX51WI light microscope (Olympus) within a light-tight Faraday cage. […] The retina-eyecups were superfused with a modified, oxygenated Ames medium maintained at 35° C.
Various methods were employed to produce cell death. (1) Single cell apoptosis: CytC was injected into individual RGCs or Müller cells for 15 minutes after which retinas were incubated for 4 hours in oxygenated Ames medium before fixation. After streptavidin histology, apoptotic cells were detected with an anti-active caspase 3 antibody or with Terminal deoxynucleotidyl transferase dUTP nick end labeling (TUNEL) staining. (2) Excitotoxicity: To assess the contribution of GJs to cell death within populations of RGCs and amacrine cells we conducted parallel experiments in which retinas were preincubated for 20 minutes in normal Ames medium or in one containing the GJ blockers meclofenamic acid (MFA; 50 μM) or 18-beta-glycyrrhetinic acid (18Beta-GA; 25 μM). Both control and drug-treated retinas were then exposed for 1 hour to NMDA (100-300 μM) to induce excitotoxicity followed by 4 hours in the control Ames solution. (3) Retinal ischemia: Transient in vivo retinal ischemia was induced by introducing into the anterior chamber a 33-gauge needle attached to a saline-filled reservoir (0.9% sodium chloride) that was raised above the animal so as to increase intraocular pressure (IOP) to a level […]. MFA (2 μl, 500 μM) was administered intravitreally either 30 minutes before or 3 and 24 hours following the ischemic insult. […]
Apoptotic and necrotic cell death were assessed by cell counts following: (1) staining with Live/Death Viability Assay (calcein AM/ethidium homodimer (EthD) (Invitrogen); (2) TUNEL, or, (3) labeling for activated caspase 3. For population studies, dead cells were counted manually within 500×500 μm areas (5 areas per retina) from micrographs of whole-mounts using images acquired by confocal microscope. Nuclear cell counts were made per unit length (500 μm) of frozen retinal cross-sections labeled with propidium iodide (2 μg/ml).

The subject of series [2] is ischemic retina. The series can be described thus: Transient in vivo retinal ischemia-reperfusion (raised IOP), 7 days reperfusion. On the set-up: species or system mouse. As to the method:
Various methods were employed to produce cell death. (1) Single cell apoptosis: CytC was injected into individual RGCs or Müller cells for 15 minutes after which retinas were incubated for 4 hours in oxygenated Ames medium before fixation. After streptavidin histology, apoptotic cells were detected with an anti-active caspase 3 antibody or with Terminal deoxynucleotidyl transferase dUTP nick end labeling (TUNEL) staining. (2) Excitotoxicity: To assess the contribution of GJs to cell death within populations of RGCs and amacrine cells we conducted parallel experiments in which retinas were preincubated for 20 minutes in normal Ames medium or in one containing the GJ blockers meclofenamic acid (MFA; 50 μM) or 18-beta-glycyrrhetinic acid (18Beta-GA; 25 μM). Both control and drug-treated retinas were then exposed for 1 hour to NMDA (100-300 μM) to induce excitotoxicity followed by 4 hours in the control Ames solution. (3) Retinal ischemia: Transient in vivo retinal ischemia was induced by introducing into the anterior chamber a 33-gauge needle attached to a saline-filled reservoir (0.9% sodium chloride) that was raised above the animal so as to increase intraocular pressure (IOP) to a level […]. MFA (2 μl, 500 μM) was administered intravitreally either 30 minutes before or 3 and 24 hours following the ischemic insult. The opposite eye was cannulated, but maintained at normal IOP to serve as a normotensive control. After 40-50 minutes, the needle was withdrawn and ischemia was evidenced by corneal whitening. After 7 days of reperfusion, mice were sacrificed and eyes were processed to assess retinal damage and neuronal death. We also employed oxygen-glucose deprivation (OGD) to induce in vitro ischemia, in which retina-eyecups or isolated retinal whole-mounts were exposed continuously to either a control, oxygenated Ringer solution, or one that was glucose-free and deoxygenated by bubbling extensively with 95% N2/5% CO2 at 34° C. Following 60 minutes in the OGD environment, retinas were transferred to a control, oxygenated Ames medium for 4 hours before processing to evaluate cell death. Apoptotic and necrotic cell death were assessed by cell counts following: (1) staining with Live/Death Viability Assay (calcein AM/ethidium homodimer (EthD) (Invitrogen); (2) TUNEL, or, (3) labeling for activated caspase 3. For population studies, dead cells were counted manually within 500×500 μm areas (5 areas per retina) from micrographs of whole-mounts using images acquired by confocal microscope. Nuclear cell counts were made per unit length (500 μm) of frozen retinal cross-sections labeled with propidium iodide (2 μg/ml). In some experiments, cells counts were limited to retrograde labeled RGCs in the GCL or certain subpopulation of amacrine cells, identified by specific markers, such as calretinin (CR), calbindin (CB) and choline acetyltransferase (ChAT) in the INL. Fluorescence intensity measures were made of glial fibrillary acidic protein (GFAP), which is overexpressed in Müller glial cells following retinal injury. Expression of GFAP and connexins were quantified by analysis of confocal images with Metavue software (Molecular Devices). Average pixel fluorescence intensities were measured by using uniform rectangular areas (3-5 per image) extending either from the GCL to the outer limiting membrane for GFAP or through the IPL for connexins. The intensity values were then averaged for at least 5 images from 3-5 independent experiments and data were normalized to controls.

Setting [3] is: MFA 500 μM, 2 μl intravitreal 30 min before ischemic insult.
Setting [4] is: MFA intravitreal 3 and 24 hours after transient ischemia, measured one week after insult, p<0.01.
[5] abbreviates: MFA, transient ischemia, p<0.001.

`Cc1ccc(Cl)c(Nc2ccccc2C(=O)O)c1Cl` [MFA, meclofenamic acid]: the “cell viability, blocker alone” value in series [1] is listed as “did not affect cell viability”. For the same molecule, the “cell death in the GCL induced by excitotoxicity” value in series [1] (retinas preincubated in 18Beta-GA 25 μM or MFA 50 μM, then NMDA 100-300 μM 1 h, vs NMDA alone, p<0.001) is recorded as “significantly reduced”. Moreover, in series [2] (setting [3]), the “cell counts in the GCL” value is given as “preserved” and the “retinal thickness / retinal morphology” value is on record as “preserved; also recorded: prevented changes”. In addition, in series [2] (setting [4]), the GFAP expression result was “maintenance of normal levels”, the “cell counts in the GCL” value is “maintenance of normal levels; also recorded: significantly limit” and the retinal thickness result is “maintenance of normal levels”. Also, in series [2] (MFA, ischemic retinas, p>0.1), the “number of ChAT-positive ACs in the INL” value was “no effect”. For the same molecule, in series [2] (setting [5]), the “number of CB-immunoreactive ACs in the INL” value is “prevented the loss; also recorded: largely prevented a reduction” and the “number of CR-immunoreactive ACs in the INL” value is given as “prevented the loss”.
